The source of these data is patent publication US4238500A, “Cyclic double hemiacetals of enediol compounds and compositions and methods for preparing and using same” (National Foundation for Cancer Research, priority 1979, dated 1980).

Data set [1] concerns guinea pig ileum. The data set can be described thus: Effects on pain receptors: twitch height of coaxially stimulated guinea pig ileum. The conditions noted are these: Cavia porcellus, read-out: ED50 (50% reduction in twitch height).
In data set [2] the test system is edema of the rat paw produced by carrageenan. The data set is described as follows: Carrageenan-induced edema of the rat paw. For orientation: Carrageenan injected into the paw causes an acute inflammation.
Method: In other experiments, edema of the rat paw was produced by intradermal injection of carrageenan (0.1 ml of 1% solution in saline).
For data set [3], the system named is capillary permeability produced by serotonin or histamine. The data set is described as follows: Increased capillary permeability by intradermal serotonin or histamine (trypan blue) in rats. The conditions noted are these: 100 mg/kg i.p. 30 minutes before, serotonin 0.05 μg or histamine 1 μg intradermal. It is filed as in vivo. The method, then:
In one series of tests, rats were treated i.v. with trypan blue and then the increased capillary permeability produced by intradermal injection of serotonin (0.05 μg) or histamine (1 μg) was measured.
No effect of methylglyoxal-ascorbic acid compound or L-ascorbic acid could be found in this system.

For data set [4], the system named is viral disease. The following applies: cited from earlier work.
Data set [5] relates to acute myelocytic leukemia. The conditions noted are these: 13 patients with acute myelocytic leukemia; all then-current therapy 13%; cited from earlier work.
Data set [6] concerns glyoxalase enzyme system. The following applies: converted by glyoxalase to D-lactic acid in presence of reduced glutathione; cited from earlier work.
Where [7] appears, read: 199 mg/kg i.p. versus indomethacin 3 mg/kg per os.

As to `O=C1O[C@H]([C@@H](O)CO)C(O)=C1O` [L-ascorbic acid], the IC50 in data set [1] was 32 mM. In data set [2] (199 mg/kg i.p. 60 minutes prior to carrageenan), the “anti-inflammatory activity (rat paw edema)” value is listed as “somewhat anti-inflammatory”. Besides, in data set [2] (setting [7]), the “activity compared with indomethacin” value was “far less active than indomethacin” and the “ratio of effectiveness (indomethacin versus compound)” value is “approximately 200”. In addition, the “effect on increased capillary permeability” value in data set [3] is “No effect”.

On to `O=CC(=O)Cc1ccccc1` [benzylglyoxal], for which the antiviral activity entry in data set [4] is listed as “have antiviral activity”.

Regarding `O=CC(=O)C1CCCCC1` [cyclohexylglyoxal], the antiviral activity entry in data set [4] is reported as “have antiviral activity”.

`CC(C=NNC(=N)N)=NNC(=N)N` [methylglyoxal bis(guanylhydrazone)]: the complete remission frequency in data set [5] was 69%.

In the case of `CC(=O)C=O` [methylglyoxal], the IC50 in data set [1] stood at 8 mM. The lability in vivo entry in data set [6] is reported as “extremely labile in vivo”.
